Laboratory results from patent publication US9751887B2, “Imidazo[1,2-b]pyridazine derivatives as kinase inhibitors” (Daiichi Sankyo Company, Limited, priority 2012, dated 2017).
Counter-ions that a name gives are not always drawn. Like-named read-outs stand apart in the source and are kept apart here.

Experiments:
ROS1 [1] = target: T1, ROS1 (Homo sapiens, UniProt P08922); test: ROS1 kinase inhibitory activity evaluation (mobility shift, EZ Reader II); format: biochemical; conditions: ROS1 25 pg/μL, FL-Peptide 22 substrate, three separate measurements
T1 construct: purchased Carna Biosciences 08-163
T1 sequence (P08922 28-2347): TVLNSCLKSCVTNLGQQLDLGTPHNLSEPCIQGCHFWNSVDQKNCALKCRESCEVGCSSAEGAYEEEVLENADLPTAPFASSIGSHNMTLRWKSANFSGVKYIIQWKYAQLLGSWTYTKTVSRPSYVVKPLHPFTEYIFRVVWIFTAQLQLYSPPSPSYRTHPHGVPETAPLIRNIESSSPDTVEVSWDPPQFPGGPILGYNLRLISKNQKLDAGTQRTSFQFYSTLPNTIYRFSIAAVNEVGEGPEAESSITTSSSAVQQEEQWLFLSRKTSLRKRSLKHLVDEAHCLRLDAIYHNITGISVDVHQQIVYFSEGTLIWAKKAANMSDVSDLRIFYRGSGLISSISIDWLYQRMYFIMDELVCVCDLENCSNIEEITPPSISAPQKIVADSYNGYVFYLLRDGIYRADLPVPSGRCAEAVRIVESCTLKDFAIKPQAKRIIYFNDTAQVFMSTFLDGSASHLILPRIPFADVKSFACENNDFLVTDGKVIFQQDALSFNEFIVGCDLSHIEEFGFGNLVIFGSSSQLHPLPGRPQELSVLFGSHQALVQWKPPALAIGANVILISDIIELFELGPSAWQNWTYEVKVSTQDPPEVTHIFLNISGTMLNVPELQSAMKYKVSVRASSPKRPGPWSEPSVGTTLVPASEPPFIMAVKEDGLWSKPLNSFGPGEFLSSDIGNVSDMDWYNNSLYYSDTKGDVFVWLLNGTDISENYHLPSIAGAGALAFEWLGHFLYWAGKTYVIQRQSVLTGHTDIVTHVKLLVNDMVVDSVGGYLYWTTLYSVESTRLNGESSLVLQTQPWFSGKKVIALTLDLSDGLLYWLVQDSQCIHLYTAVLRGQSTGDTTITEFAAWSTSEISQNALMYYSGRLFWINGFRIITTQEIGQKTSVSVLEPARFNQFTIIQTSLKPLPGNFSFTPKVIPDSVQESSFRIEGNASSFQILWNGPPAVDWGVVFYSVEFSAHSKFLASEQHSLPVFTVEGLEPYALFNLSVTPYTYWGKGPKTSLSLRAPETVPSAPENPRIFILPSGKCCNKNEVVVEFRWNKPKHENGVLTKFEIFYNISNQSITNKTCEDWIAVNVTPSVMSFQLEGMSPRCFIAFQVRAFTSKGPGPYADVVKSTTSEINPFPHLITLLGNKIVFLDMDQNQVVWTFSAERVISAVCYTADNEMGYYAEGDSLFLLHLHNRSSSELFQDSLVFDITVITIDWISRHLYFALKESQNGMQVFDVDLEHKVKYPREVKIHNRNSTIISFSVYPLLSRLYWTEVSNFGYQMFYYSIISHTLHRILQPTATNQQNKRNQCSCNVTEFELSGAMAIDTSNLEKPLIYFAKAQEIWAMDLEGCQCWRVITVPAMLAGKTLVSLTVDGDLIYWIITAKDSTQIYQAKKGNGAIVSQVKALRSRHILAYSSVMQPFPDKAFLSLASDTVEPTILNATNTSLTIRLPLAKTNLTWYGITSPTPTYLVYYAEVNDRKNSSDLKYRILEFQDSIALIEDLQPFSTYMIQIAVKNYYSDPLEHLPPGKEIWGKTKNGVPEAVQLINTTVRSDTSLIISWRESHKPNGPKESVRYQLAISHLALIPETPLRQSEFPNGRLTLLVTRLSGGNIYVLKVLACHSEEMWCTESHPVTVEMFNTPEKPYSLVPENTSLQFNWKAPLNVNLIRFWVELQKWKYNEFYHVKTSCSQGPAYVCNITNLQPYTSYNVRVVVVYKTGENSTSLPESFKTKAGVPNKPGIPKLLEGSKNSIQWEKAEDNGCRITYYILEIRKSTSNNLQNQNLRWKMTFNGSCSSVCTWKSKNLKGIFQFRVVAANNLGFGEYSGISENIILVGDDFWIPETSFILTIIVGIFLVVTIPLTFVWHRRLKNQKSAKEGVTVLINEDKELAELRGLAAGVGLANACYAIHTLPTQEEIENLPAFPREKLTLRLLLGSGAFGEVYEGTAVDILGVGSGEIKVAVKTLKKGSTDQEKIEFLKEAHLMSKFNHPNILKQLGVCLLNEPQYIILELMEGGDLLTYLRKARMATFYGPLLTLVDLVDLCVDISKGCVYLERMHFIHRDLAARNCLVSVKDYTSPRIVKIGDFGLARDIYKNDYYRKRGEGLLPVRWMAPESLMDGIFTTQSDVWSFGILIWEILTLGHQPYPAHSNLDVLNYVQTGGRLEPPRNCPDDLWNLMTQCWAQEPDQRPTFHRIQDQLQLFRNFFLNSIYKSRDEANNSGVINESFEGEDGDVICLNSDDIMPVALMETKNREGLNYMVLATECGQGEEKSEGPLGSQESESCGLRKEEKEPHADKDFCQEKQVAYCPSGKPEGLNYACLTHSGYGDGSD
Protocol: Next, a substrate reaction solution was prepared. […] Then, the reaction stop solution was added thereto at a concentration of 40 μL/well. Substrate phosphorylation intensity was measured using EZ Reader II (Caliper Life Sciences).

ROS1 [2] = target: T1, ROS1; test: ROS1 autophosphorylation inhibitory activity evaluation (ADP-Glo); format: biochemical; conditions: 200 nM inactive ROS1, ATP 1 mM, 25° C. 1.5 hours, ADP generated, four separate measurements
Protocol: Fifty mM HEPES (pH 7.5), 10 mM MgCl2, 0.01% Brij-58, and 2.5 mM DTT were mixed to prepare an enzymatic reaction solution. […] ATP (final concentration: 1 mM) was further added thereto at a concentration of 2.5 μL/well. The resulting plate was left standing at 25° C. for 1.5 hours to cause enzymatic reaction. After the completion of enzymatic reaction, ADP-Glo Reagent-1 (Promega, V9103) was added thereto at a concentration of 2.5 μL/well, and the plate was left standing at room temperature for 60 minutes. Then, ADP-Glo Reagent-2 (Promega) was added thereto at a concentration of 5 μL/well, and the plate was left standing at room temperature for 60 minutes. The amount of ADP generated by the autophosphorylation of ROS1 was measured using EnVision (PerkinElmer Japan). The amount of ADP generated in four separate measurements was defined as the autophosphorylation intensity of ROS1. IC50 values were calculated by curve fitting using GraphPad Prism version 4 (GraphPad software).

[3] = system: HCC78 cells having ROS1 fusion gene; test: HCC78 cell growth assay (CellTiter-Glo); format: cell-based; conditions: Homo sapiens, 72 hours culture, 2% FBS medium, luminescence, four separate measurements, read-out: growth inhibitory effect on HCC78 cells having ROS1 fusion gene IC50
Protocol: Each compound of the present invention was assayed for its cell growth inhibitory effect using HCC78 cells having ROS1 fusion gene.
The suspension was dispensed at a concentration of 100 μL/well to a 96-well culture plate for cell culture (SUMITOMO BAKELITE, Cat No MS-0096S) (hereinafter, referred to as an assay plate). […] In this context, the final concentration of DMSO was set to 0.4%. Then, the cells were cultured for 72 hours in a CO2 incubator.
CellTiter-Glo Luminescent Cell Viability Assay reagent (Promega, Cat No G7571) was dispensed at a concentration of 100 μL/well to the assay plate. The contents in each well were reacted at room temperature for 10 minutes while stirred using a plate mixer. […] The luminescence intensity of each well was measured using EnVision. The luminescence intensity of each well obtained in four separate measurements was defined as the number of cells. IC50 values were calculated by curve fitting using GraphPad Prism version 4.

| IC50 (ROS1 [1]) [nM] | IC50 (ROS1 [2]) [nM] | IC50 ([3]; HCC78, 72 h) [nM] | Compound | IC50 ([3]; HCC78) [nM] |
| --- | --- | --- | --- | --- |
| 1 to 10 | 20 to 100 | 100 to 600 | c1ccc(CNc2ccc3ncc(-c4cccc(OC[C@@H]5CCCN5)c4)n3n2)cc1 [Example 2, N-Benzyl-3-[3-[[(2S)-pyrrolidin-2-yl]methoxy]phenyl]imidazo[1,2-b]pyridazin-6-amine] |  |
| < 1 | < 20 | < 20 | CN(Cc1cc(F)cc(F)c1)c1ccc2ncc(-c3ccc(N4C[C@@H](N)CC4=O)cc3)n2n1 [Example 120, (4S)-4-Amino-1-[4-[6-[(3,5-difluorophenyl)methyl-methylamino]imidazo[1,2-b]pyridazin-3-yl]phenyl]pyrrolidin-2-one] |  |
| 1 to 10 | < 20 | 20 to 100 | CNCCCOc1cccc(-c2cnc3ccc(N[C@H](C)c4cccc(F)c4)nn23)c1 [Example 66, N-[(1R)-1-(3-Fluorophenyl)ethyl]-3-[3-[3-(methylamino)propoxy]phenyl]imidazo[1,2-b]pyridazin-6-amine] |  |
| 1 to 10 | 20 to 100 | 100 to 600 | C[C@@H](Nc1ccc2ncc(-c3ccc(SC[C@@H]4CCCN4)cc3)n2n1)c1ccccc1 [Example 20, N-[(1R)-1-Phenylethyl]-3-[4-[[(2S)-pyrrolidin-2-yl]methylsulfanyl]phenyl]imidazo[1,2-b]pyridazin-6-amine] |  |
| < 1 | < 20 | 20 to 100 | C[C@@H](Nc1ccc2ncc(-c3ccc(O[C@@H]4CCNC4)cc3)n2n1)c1cccc(F)c1 [Example 22, N-[(1R)-1-(3-Fluorophenyl)ethyl]-3-[4-[(3R)-pyrrolidin-3-yl]oxyphenyl]imidazo[1,2-b]pyridazin-6-amine] |  |
| 1 to 10 | 20 to 100 | 20 to 100 | CN(Cc1cccc(F)c1)c1ccc2ncc(-c3ccc(N4CC(C)(N)CC4=O)cc3)n2n1 (stereo not shown) [Example 84, 4-Amino-1-[4-[6-[(3-fluorophenyl)methyl-methylamino]imidazo[1,2-b]pyridazin-3-yl]phenyl]-4-methylpyrrolidin-2-one] |  |
| 1 to 10 | 100 to 150 | 100 to 600 | c1ccc(CNc2ccc3ncc(-c4cccc(O[C@@H]5CCNC5)c4)n3n2)cc1 [Example 4, N-Benzyl-3-[3-[(3R)-pyrrolidin-3-yl]oxyphenyl]imidazo[1,2-b]pyridazin-6-amine] |  |
| < 1 | < 20 | < 20 | C[C@@H](N)COc1ccc(-c2cnc3ccc(N[C@H](C)c4cccc(F)c4)nn23)cn1 [Example 53, 3-[6-[(2R)-2-Aminopropoxy]-3-pyridyl]-N-[(1R)-1-(3-fluorophenyl)ethyl]imidazo[1,2-b]pyridazin-6-amine] |  |
| < 1 | < 20 | < 20 | C[C@@H](Nc1ccc2ncc(-c3ccc(OCCNCCO)cc3)n2n1)c1cccc(F)c1 [Example 42, 2-[2-[4-[6-[[(1R)-1-(3-Fluorophenyl)ethyl]amino]imidazo[1,2-b]pyridazin-3-yl]phenoxy]ethylamino]ethanol] |  |
| < 1 | < 20 | < 20 | CC(Oc1ccc2ncc(-c3ccc(N4C[C@@H](N)CC4=O)cc3)n2n1)c1cncc(F)c1 (stereo partly shown) [Example 107] |  |
| 1 to 10 | 20 to 100 | 100 to 600 | CN(Cc1ccccc1)c1ccc2ncc(-c3ccc(N4C[C@@H](N)CC4=O)cc3)n2n1 [Example 94, (4S)-4-Amino-1-[4-[6-[benzyl(methyl)amino]imidazo[1,2-b]pyridazin-3-yl]phenyl]pyrrolidin-2-one] |  |
| 1 to 10 | < 20 | < 20 | CN(Cc1cncc(F)c1)c1ccc2ncc(-c3ccc(N4CC(C)(N)CC4=O)cc3)n2n1 (stereo not shown) [Example 119, 4-Amino-1-[4-[6-[(5-fluoro-3-pyridyl)methyl-methylamino]imidazo[1,2-b]pyridazin-3-yl]phenyl]-4-methylpyrrolidin-2-one] |  |
| < 1 | < 20 | < 20 | CNC(C)COc1ccc(-c2cnc3ccc(N[C@H](C)c4cccc(F)c4)nn23)cc1 (stereo partly drawn) [Example 38, N-[(1R)-1-(3-Fluorophenyl)ethyl]-3-[4-[2-(methylamino)propoxy]phenyl]imidazo[1,2-b]pyridazin-6-amine] |  |
| < 1 | < 20 | < 20 | C[C@@H](Nc1ccc2ncc(-c3ccc(OCC(N)CO)cc3)n2n1)c1cccc(F)c1 (stereo partly drawn) [Example 45, 2-Amino-3-[4-[6-[[(1R)-1-(3-fluorophenyl)ethyl]amino]imidazo[1,2-b]pyridazin-3-yl]phenoxy]propan-1-ol] |  |
|  | < 20 |  | CN(Cc1cccc(F)c1)c1ccc2ncc(-c3ccc(N4CC(C)(N)CC4=O)cc3)n2n1 (single isomer, unassigned) [Example 86, 4-Amino-1-[4-[6-[(3-fluorophenyl)methyl-methylamino]imidazo[1,2-b]pyridazin-3-yl]phenyl]-4-methylpyrrolidin-2-one] |  |
| < 1 | < 20 | 20 to 100 | CC(Oc1ccc2ncc(-c3ccc(N4C[C@@H](N)CC4=O)cc3)n2n1)c1cc(F)ccc1F (stereo partly drawn) [Example 104, (4S)-4-Amino-1-[4-[6-[1-(2,5-difluorophenyl)ethoxy]imidazo[1,2-b]pyridazin-3-yl]phenyl]pyrrolidin-2-one] |  |
| 1 to 10 | 100 to 150 | 20 to 100 | OCCN1CCC[C@H]1COc1cccc(-c2cnc3ccc(NCc4ccccc4)nn23)c1 [Example 7, 2-[(2S)-2-[[3-[6-(Benzylamino)imidazo[1,2-b]pyridazin-3-yl]phenoxy]methyl]pyrrolidin-1-yl]ethanol] |  |
| < 1 |  | 20 to 100 | C[C@@H](Oc1ccc2ncc(-c3ccc(OC[C@@H]4CCCN4)cc3)n2n1)c1cccc(F)c1 [Example 16, 6-[(1R)-1-(3-Fluorophenyl)ethoxy]-3-[4-[[(2S)-pyrrolidin-2-yl]methoxy]phenyl]imidazo[1,2-b]pyridazine] |  |
| < 1 | < 20 |  | C[C@@H](Nc1ccc2ncc(-c3ccc(OC4CCCC4N)cc3)n2n1)c1cccc(F)c1 (single isomer, unassigned) [Example 32] |  |
| 1 to 10 |  |  | CC(Oc1ccc2ncc(-c3ccc(N4C[C@@H](N)CC4=O)cc3)n2n1)c1cc(F)cnc1F (stereo partly drawn) [Example 134, (4S)-4-Amino-1-[4-[6-[(1-(2,5-difluoro-3-pyridyl)ethoxy]imidazo[1,2-b]pyridazin-3-yl]phenyl]pyrrolidin-2-one hydrochloride] |  |
|  | < 20 |  | C[C@@H](Oc1ccc2ncc(-c3ccc(N4C[C@@H](N)CC4=O)cc3)n2n1)c1cccc(F)c1 [Example 133, (4S)-4-Amino-1-[4-[6-[(1R)-1-(3-fluorophenyl)ethoxy]imidazo[1,2-b]pyridazin-3-yl]phenyl]pyrrolidin-2-one hydrochloride] |  |
|  | 20 to 100 |  | CN(Cc1cncc(F)c1)c1ccc2ncc(-c3ccc(N4CC(C)(N)CC4=O)cc3)n2n1 (single isomer, unassigned) [Example 125, 4-Amino-1-[4-[6-[(5-fluoro-3-pyridyl)methyl-methylamino]imidazo[1,2-b]pyridazin-3-yl]phenyl]-4-methylpyrrolidin-2-one] |  |
|  |  | < 20 | CC(N)COc1ccc(-c2cnc3ccc(N[C@H](C)c4cccc(F)c4)nn23)cc1 (stereo partly drawn) [Example 35, 3-[4-(2-Aminopropoxy)phenyl]-N-[(1R)-1-(3-fluorophenyl)ethyl]imidazo[1,2-b]pyridazin-6-amine] |  |
|  |  |  | CN(Cc1cccc(Cl)c1)c1ccc2ncc(-c3ccc(N4CC(N)CC4=O)cc3)n2n1 (stereo not shown) [Example 96, 4-Amino-1-[4-[6-[(3-chlorophenyl)methyl-methylamino]imidazo[1,2-b]pyridazin-3-yl]phenyl]pyrrolidin-2-one] | 100 to 600 |

| Compound | IC50 (ROS1 [1]) [nM] | IC50 (ROS1 [2]) [nM] | IC50 ([3]; HCC78, 72 h) [nM] | IC50 ([3]; HCC78) [nM] |
| --- | --- | --- | --- | --- |
| CN(Cc1cccnc1)c1ccc2ncc(-c3ccc(N4C[C@@H](N)CC4=O)cc3)n2n1 [Example 117, (4S)-4-Amino-1-[4-[6-[methyl(3-pyridylmethyl)amino]imidazo[1,2-b]pyridazin-3-yl]phenyl]pyrrolidin-2-one] | 1 to 10 | 20 to 100 |  | 20 to 100 |
| CC[C@@H](N)COc1ccc(-c2cnc3ccc(N[C@H](C)c4cccc(F)c4)nn23)cc1 [Example 52, 3-[4-[(2R)-2-Aminobutoxy]phenyl]-N-[(1R)-1-(3-fluorophenyl)ethyl]imidazo[1,2-b]pyridazin-6-amine] | < 1 | < 20 | 20 to 100 |  |
